Assay results as given in PubChem BioAssay AID248 (DTP/NCI, 2004).
Several values for one entry are separate records, joined by “and”; a condition that tells them apart may be missing. Equal entries are not always repeated. Toxic doses and inconclusive results are not listed. Cut-off read from the data, not from the text of the source: active = T/C of 150% or more; inactive = T/C below 125%.

System: L1210 leukemia ip in BDF1 mice, survival T/C
Experiment: NCI In Vivo Anticancer Drug Screen. Data for tumor model L1210 Leukemia (intraperitoneal) in B6D2F1 (BDF1) mice
Conditions: endpoint: mean survival time, higher = longer survival
Outline: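 Transplanted-tumor mice were given test agent; controls received vehicle only. Survival readings from the two groups were divided (treated over control).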

[1] = dose: 100.0 mg/kg/injection, schedule: Q01DX009 (ip), vehicle: saline with Tween-80
[2] = dose: 100.0 mg/kg/injection, schedule: Q04DX003 (ip), vehicle: saline with Tween-80
[3] = dose: 200.0 mg/kg/injection, schedule: Q01DX009 (ip), vehicle: saline with Tween-80
[4] = dose: 200.0 mg/kg/injection, schedule: Q04DX003 (ip), vehicle: saline with Tween-80
[5] = dose: 400.0 mg/kg/injection, schedule: Q01DX009 (ip), vehicle: saline with Tween-80
[6] = dose: 400.0 mg/kg/injection, schedule: Q04DX003 (ip), vehicle: saline with Tween-80
[7] = dose: 25.0 mg/kg/injection, schedule: Q04DX003 (ip), vehicle: saline
[8] = dose: 50.0 mg/kg/injection, schedule: Q04DX003 (ip), vehicle: saline
[9] = dose: 100.0 mg/kg/injection, schedule: Q01DX001 (ip), vehicle: acetone
[10] = dose: 100.0 mg/kg/injection, schedule: Q04DX003 (ip), vehicle: saline
[11] = dose: 50.0 mg/kg/injection, schedule: Q01DX009 (ip), vehicle: saline with Tween-80
[12] = dose: 100.0 mg/kg/injection, schedule: Q01DX001 (ip), vehicle: Klucel (hydroxypropylcellulose) (HPC)
[13] = dose: 200.0 mg/kg/injection, schedule: Q01DX001 (ip), vehicle: Klucel (hydroxypropylcellulose) (HPC)

Measured: T/C

NC(=O)c1ccccc1OC(=O)Nc1ccc(F)cc1
inactive: dose: 50.0 mg/kg/injection, schedule: Q01DX001 (ip), vehicle: carboxymethylcellulose (CMC) 100 % of control | dose: 50.0 mg/kg/injection, schedule: Q01DX009 (ip), vehicle: carboxymethylcellulose (CMC) 97 % of control | dose: 100.0 mg/kg/injection, schedule: Q01DX001 (ip), vehicle: carboxymethylcellulose (CMC) 103 % of control | dose: 100.0 mg/kg/injection, schedule: Q01DX009 (ip), vehicle: carboxymethylcellulose (CMC) 100 % of control and 103 % of control | dose: 100.0 mg/kg/injection, schedule: Q04DX002 (ip), vehicle: carboxymethylcellulose (CMC) 100 % of control and 109 % of control | dose: 200.0 mg/kg/injection, schedule: Q01DX001 (ip), vehicle: carboxymethylcellulose (CMC) 102 % of control | dose: 200.0 mg/kg/injection, schedule: Q04DX002 (ip), vehicle: carboxymethylcellulose (CMC) 100 % of control | dose: 400.0 mg/kg/injection, schedule: Q04DX002 (ip), vehicle: carboxymethylcellulose (CMC) 86 % of control

O=C(/C=C/c1ccc(F)cc1)c1ccc(Cl)cc1
inactive: [1] 101 % of control | [2] 96 % of control | [3] 92 % of control | [4] 90 % of control | [5] 103 % of control | [6] 94 % of control

CCCCCCCCCCCCCCCCCC1=NCCN1CCN
inactive: dose: 25.0 mg/kg/injection, schedule: Q01DX009 (ip), vehicle: saline 111 % of control | [7] 97 % of control | dose: 50.0 mg/kg/injection, schedule: Q01DX009 (ip), vehicle: saline 97 % of control | [8] 92 % of control | [9] 100 % of control | [10] 101 % of control

CCOC(=O)CCC(NC(=O)c1cccc(N(C)C=O)c1)C(=O)OCC (stereo unspecified)
inactive: [11] 100 % of control | [1] 92 % of control | [3] 93 % of control

NS(=O)(=O)c1ccc(N=Cc2ccccc2)cc1
inactive: [1] 89 % of control | [3] 92 % of control | [5] 94 % of control

O=C(Nc1cccc2ccccc12)O/N=C/c1ccccn1
inactive: [11] 94 % of control | [1] 86 % of control and 87 % of control | [2] 87 % of control | [3] 94 % of control | [4] 90 % of control | [5] 107 % of control | [6] 95 % of control

O=C(CI)Nc1ccc(NC(=O)CI)cc1
inactive: dose: 100.0 mg/kg/injection, schedule: Q04DX003 (ip), vehicle: Klucel (hydroxypropylcellulose) (HPC) 90 % of control | dose: 200.0 mg/kg/injection, schedule: Q04DX003 (ip), vehicle: Klucel (hydroxypropylcellulose) (HPC) 95 % of control

CN(C)c1ccc(C(=O)c2ccc(N(C)C)cc2)cc1
inactive: [2] 93 % of control | [4] 88 % of control | [6] 97 % of control

CCOC(=O)c1ccc(NC(=O)Nc2ccc(Cl)cc2[N+](=O)[O-])cc1
inactive: dose: 100.0 mg/kg/injection, schedule: Q01DX009 (ip), vehicle: Klucel (hydroxypropylcellulose) (HPC) 95 % of control and 92 % of control | dose: 200.0 mg/kg/injection, schedule: Q01DX009 (ip), vehicle: Klucel (hydroxypropylcellulose) (HPC) 92 % of control | dose: 400.0 mg/kg/injection, schedule: Q01DX009 (ip), vehicle: Klucel (hydroxypropylcellulose) (HPC) 88 % of control and 92 % of control

CCCCCCC(=O)CCC(=O)CCCCCCCC(=O)O
inactive: dose: 50.0 mg/kg/injection, schedule: Q01DX001 (ip), vehicle: Klucel (hydroxypropylcellulose) (HPC) 103 % of control | [12] 89 % of control | [13] 100 % of control

CCCOC(=O)c1ccc([N+](=O)[O-])o1
inactive: [12] 95 % of control | [13] 92 % of control

CC(=O)Oc1cccc(N(C)C)c1
inactive: [7] 97 % of control | [8] 100 % of control | [9] 98 % of control | [10] 91 % of control

c1cc2c([nH]1)CCCC2
inactive: dose: 75.0 mg/kg/injection, schedule: Q01DX001 (ip), vehicle: acetone 106 % of control | dose: 150.0 mg/kg/injection, schedule: Q01DX001 (ip), vehicle: acetone 111 % of control | dose: 300.0 mg/kg/injection, schedule: Q01DX001 (ip), vehicle: acetone 100 % of control

COc1cc(CCN)ccc1O
inactive: dose: 100.0 mg/kg/injection, schedule: Q01DX009 (ip), vehicle: saline 87 % of control | dose: 200.0 mg/kg/injection, schedule: Q01DX009 (ip), vehicle: saline 90 % of control | dose: 400.0 mg/kg/injection, schedule: Q01DX009 (ip), vehicle: saline 95 % of control
